Measured values taken from patent publication US20220064238A1, “Methods And Compositions For Modifying Transcription Factor Activity by Targeting The Human Mediator Complex Using Cell Penetrating Memetic Peptides And Methods of Treating Cancer Using The Same” (The Regents of the University of Colorado, a body corporate, priority 2020, published 2022).
Bridge positions count the residues as written; N and C are the ends. Square brackets hold non-standard residues; d marks the D form. Peptide text beside a SMILES is read from it. PEG6 = NCCOCCOCCOCCOCCOCCOCCC(=O)O; R8 = C=CCCCCCC[C@@](C)(N)C(=O)O; S5 = C=CCCC[C@](C)(N)C(=O)O

Experiments:
[1] = molecular target: T1, p53-activated transcription (Gal4-p53AD, Mediator) (Homo sapiens, UniProt Q9NVC6); test: In vitro transcription on naked DNA templates, p53-activated (+Gal4-p53AD); format: biochemical; conditions: 500 nM peptide
T1 construct: made in house
Description: To screen peptides for the ability to selectively block p53-dependent transcription, we required an assay that enabled p53-dependent activation but that could also support basal (i.e. activator-independent) transcription. The present inventors had previously established an in vitro transcription assay (using highly purified human factors (FIG. 1A). A key feature of this assay was that both activated and basal transcription could be reconstituted on naked DNA templates (i.e. DNA templates not assembled into chromatin). To adapt this assay for purposes of measuring basal vs. p53-activated transcription, we generated templates with Gal4 DNA binding sites upstream of the adenovirus major late promoter sequence (FIG. 5A, B). Upon titration of a Gal4 DNA Binding Domain (DBD)-p53 Activation Domain (AD; residues 1-70) fusion protein into this system, we observed pol II-dependent transcription that was dependent on p53AD and Mediator (FIG. 5C). Reactions containing Gal4-p53AD generally produced about two- to four-fold more transcripts compared to reactions with no activator (FIG. 5C). Because experiments without Gal4-p53AD produced a low level of “basal” transcription that could be quantitated, this system allowed assessment of both p53-activated and basal transcription. […]

SJSA cells = test: SJSA cell death after Nutlin treatment (CellTiter-Glo); format: cell-based; conditions: 24-hour Nutlin 10 μM
Experimental: Experimental time frame for RNA-Seq experiments: In a series of experiments in SJSA cells, we initially tested whether the bivalent peptide could cause a phenotypic change. […] We next determined that a 6-hour Nutlin treatment time was the shortest that would still trigger significant SJSA cell death within 24-48 hours. However, we obtained similar results with 6-hour (or 12-hour) Nutlin treatment times (±bivalent peptide). We then tested the prospect of RNA-Seq experiments, in hopes that gene expression changes and shorter time frames would allow an assessment of bivalent peptide effects. Here, we used HCT116 cells, which show strong transcriptional response to Nutlin (Allen et al., 2014). For RNA-Seq experiments, we needed a time frame long enough to allow accumulation of p53 target gene mRNAs but short enough to enable maximum activity of the bivalent peptide (e.g. prior to its secretion, export, and/or degradation). Using RT-qPCR assays, we confirmed that a 3-hour Nutlin treatment was a minimum amount of time to reliably detect induction of p53 target genes. […] RNA-Seq data have been uploaded on GEO: GSE135870.

## CC[C@H](C)[C@H](NC(=O)[C@H](CC(=O)O)NC(=O)[C@H](CC(=O)O)NC(=O)[C@@H]1CCCN1C(=O)[C@H](CO)NC(=O)[C@H](CC(C)C)NC(=O)CCOCCOCCOCCOCCOCCOCCNC(=O)[C@H](CCCNC(=N)N)NC(=O)[C@H](CCCNC(=N)N)NC(=O)[C@]1(C)CCCC=CCCCCCC[C@@](C)(NC(=O)[C@H](Cc2ccccc2)NC(=O)[C@H](CCCNC(=N)N)NC(=O)[C@H](CCC(=O)O)NC(=O)[C@H](CCC(N)=O)NC(=O)[C@H](CO)NC(=O)[C@H](CCCNC(=N)N)NC(C)=O)C(=O)N[C@@H](CC(=O)O)C(=O)N[C@@H](CC(C)C)C(=O)N[C@@H](Cc2c[nH]c3ccccc23)C(=O)N[C@@H](CCCCN)C(=O)N[C@@H](CCCNC(=N)N)C(=O)N[C@@H](CC(C)C)C(=O)N1)C(=O)N[C@@H](CCC(=O)O)C(=O)N[C@@H](CCC(N)=O)C(=O)N[C@@H](Cc1c[nH]c2ccccc12)C(=O)N[C@@H](Cc1ccccc1)C(=O)N[C@H](C(=O)N[C@@H](CCC(=O)O)C(=O)N[C@@H](CC(=O)O)C(N)=O)[C@@H](C)O [bivalent peptide] (Ac-RSQERF[R8]DLWKRL[S5]RR[PEG6]LSPDDIEQWFTED-NH2; staple 7-14; N-terminus assumed)
[1]
  inhibition of p53-activated transcription at 500 nM: inhibited
SJSA cells
  effect on cell death after Nutlin treatment: no significant effect
